According to ChEMBL document CHEMBL4417631, “Oral peptide inhibitors of interleukin-23 receptor and their use to treat inflammatory bowel diseases” (2017):
*1 amine or outer side, *2 acyl side, *3 side chain or, on linkers, in order; H or OH if unused. Where a SMILES comes first, the peptide text is derived from it. Bridges are numbered along the chain shown (N, C = ends). [ ]: non-standard residue; d: D form. Abu(4-yl) = O=C([C@H](CC[*:3])N[*:1])[*:2]; 2Nal = N[C@@H](Cc1ccc2ccccc2c1)C(=O)O; AEF = NCCOc1ccc(C[C@H](N)C(=O)O)cc1; αMeL = CC(C)C[C@](C)(N)C(=O)O; αMeK = C[C@](N)(CCCCN)C(=O)O

Columns and labels:
[1] = Half life in simulated intestinal fluid at 20 uM by LC-MS/MS analysis; assay type: ADME
[2] = Inhibition of interleukin-23 binding to rat interleukin-23 receptor incubated for 2 hrs by competitive binding ELISA
[3] = Half life in simulated gastric fluid at 20 uM by LC-MS/MS analysis; assay type: ADME
Interleukin-23 receptor [4] = molecular target: T1, Interleukin-23 receptor (Homo sapiens, UniProt Q5VWK5); experiment: Inhibition of interleukin-23 binding to human interleukin-23 receptor incubated for 2 hrs by competitive binding ELISA
T1 sequence (Q5VWK5 whole entry): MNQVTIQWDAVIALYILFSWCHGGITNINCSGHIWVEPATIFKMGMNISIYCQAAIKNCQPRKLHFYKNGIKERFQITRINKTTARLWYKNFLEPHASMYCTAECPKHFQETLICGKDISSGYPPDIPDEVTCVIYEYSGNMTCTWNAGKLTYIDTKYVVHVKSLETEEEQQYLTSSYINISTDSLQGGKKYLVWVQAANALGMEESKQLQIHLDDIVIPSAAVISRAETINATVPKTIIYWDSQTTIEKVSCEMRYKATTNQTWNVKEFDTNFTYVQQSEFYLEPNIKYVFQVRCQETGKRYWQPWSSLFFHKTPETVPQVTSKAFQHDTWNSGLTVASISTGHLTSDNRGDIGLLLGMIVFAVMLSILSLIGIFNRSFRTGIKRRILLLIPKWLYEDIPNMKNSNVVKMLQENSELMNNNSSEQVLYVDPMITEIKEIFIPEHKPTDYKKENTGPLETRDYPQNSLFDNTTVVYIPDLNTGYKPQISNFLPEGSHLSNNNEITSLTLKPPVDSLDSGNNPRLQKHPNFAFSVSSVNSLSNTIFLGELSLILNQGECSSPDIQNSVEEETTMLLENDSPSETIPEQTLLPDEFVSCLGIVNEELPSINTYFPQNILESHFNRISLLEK

Interleukin-23 receptor [5] = molecular target: T1, Interleukin-23 receptor; experiment: Inhibition of interleukin-23 receptor in human DB cells assessed as reduction in IL-23-stimulated STAT3 phosphorylation incubated for 30 mins by HTRF assay; assay type: cell-based

Structure (SMILES)	half-life at 20 µM [1] [min]	IC50 [2] [nM]	half-life at 20 µM [3] [min]	IC50 (Interleukin-23 receptor [4]) [nM]	IC50 (Interleukin-23 receptor [5]) [nM]
CC(=O)N[C@H](C(=O)N[C@@H](CCC(N)=O)C(=O)N[C@H](C(=O)N[C@@H](Cc1c[nH]c2ccccc12)C(=O)N[C@@H](CCC(N)=O)C(=O)N[C@H](C(=O)N[C@@H](Cc1ccc(OCCN)cc1)C(=O)N[C@@H](Cc1ccc2ccccc2c1)C(=O)N[C@@](C)(CCCCN)C(=O)N[C@@H](CCC(=O)O)C(=O)N[C@@H](CC(N)=O)C(=O)N[C@@H](C)C(N)=O)C(C)(C)S)[C@@H](C)O)C(C)(C)S	> 360	25 to 100	> 360	< 10	< 10
COc1ccc(C[C@H](NC(=O)[C@@H]2CSCC[C@H](NC(=O)[C@@H](CCCCN)NC(C)=O)C(=O)N[C@@H](CCC(N)=O)C(=O)N[C@@H]([C@@H](C)O)C(=O)N[C@@H](Cc3c[nH]c4ccccc34)C(=O)N[C@@H](CCC(N)=O)C(=O)N2)C(=O)N[C@@H](Cc2ccc3ccccc3c2)C(=O)N[C@@](C)(CC(C)C)C(=O)N[C@@H](CCC(=O)O)C(=O)N[C@@H](CC(N)=O)C(=O)NCC(N)=O)cc1	60 to 120	10 to 25	< 60	< 10	< 10
CC(=O)NCCCC[C@H](NC(=O)[C@](C)(CCCCN)NC(=O)[C@H](Cc1ccc2ccccc2c1)NC(=O)[C@H](Cc1ccc(OCCN)cc1)NC(=O)[C@@H](NC(=O)[C@H](CCC(N)=O)NC(=O)[C@H](Cc1c[nH]c2ccccc12)NC(=O)[C@@H](NC(=O)[C@H](CCC(N)=O)NC(=O)[C@@H](NC(C)=O)C(C)(C)S)[C@@H](C)O)C(C)(C)S)C(=O)N[C@@H](CC(N)=O)C(=O)N[C@@H](CC(N)=O)C(N)=O	> 360	10 to 25	> 360	< 10	< 10
COc1ccc(C[C@H](NC(=O)[C@@H]2CSCC[C@H](NC(C)=O)C(=O)N[C@@H](CCC(N)=O)C(=O)N[C@@H]([C@@H](C)O)C(=O)N[C@@H](Cc3c[nH]c4ccccc34)C(=O)N[C@@H](CCC(N)=O)C(=O)N2)C(=O)N[C@@H](Cc2c[nH]c3ccccc23)C(=O)N[C@@](C)(CCCCN)C(=O)N[C@@H](CCCCNC(C)=O)C(=O)N[C@@H](CC(N)=O)C(=O)NCC(N)=O)cc1	> 360	10 to 25	< 60	10 to 25	10 to 25
COc1ccc(C[C@H](NC(=O)[C@@H]2CSCC[C@H](NC(C)=O)C(=O)N[C@@H](CCC(N)=O)C(=O)N[C@@H]([C@@H](C)O)C(=O)N[C@@H](Cc3c[nH]c4ccccc34)C(=O)N[C@@H](CCC(N)=O)C(=O)N2)C(=O)N[C@@H](Cc2ccc3ccccc3c2)C(=O)N[C@@](C)(CCCN)C(=O)N[C@@H](CCCCNC(C)=O)C(=O)N[C@@H](CC(N)=O)C(=O)NCC(N)=O)cc1	120 to 180	10 to 25	< 60	10 to 25	< 10
CC(=O)N[C@H]1CCSC[C@@H](C(=O)N[C@@H](Cc2ccc(OCCN)cc2)C(=O)N[C@@H](Cc2ccc3ccccc3c2)C(=O)N[C@@](C)(CCCCN)C(=O)N[C@@H](CCC(=O)O)C(=O)N[C@@H](CC(N)=O)C(=O)NCC(N)=O)NC(=O)[C@H](CCC(N)=O)NC(=O)[C@H](Cc2c[nH]c3ccccc23)NC(=O)[C@H]([C@@H](C)O)NC(=O)[C@H](CCC(N)=O)NC1=O	> 360	< 10	> 360	< 10	< 10
COc1ccc(C[C@H](NC(=O)[C@@H]2CSCC[C@H](NC(=O)[C@@H](CCCCNC(=O)COCC(=O)NCCCC[C@@H](NC(C)=O)C(=O)N[C@H]3CCSC[C@@H](C(=O)N[C@@H](Cc4ccc(OC)cc4)C(=O)N[C@@H](Cc4ccc5ccccc5c4)C(=O)N[C@@](C)(CC(C)C)C(=O)N[C@@H](CCC(=O)O)C(=O)N[C@@H](CC(N)=O)C(=O)NCC(N)=O)NC(=O)[C@H](CCC(N)=O)NC(=O)[C@H](Cc4c[nH]c5ccccc45)NC(=O)[C@H]([C@@H](C)O)NC(=O)[C@H](CCC(N)=O)NC3=O)NC(C)=O)C(=O)N[C@@H](CCC(N)=O)C(=O)N[C@@H]([C@@H](C)O)C(=O)N[C@@H](Cc3c[nH]c4ccccc34)C(=O)N[C@@H](CCC(N)=O)C(=O)N2)C(=O)N[C@@H](Cc2ccc3ccccc3c2)C(=O)N[C@@](C)(CC(C)C)C(=O)N[C@@H](CCC(=O)O)C(=O)N[C@@H](CC(N)=O)C(=O)NCC(N)=O)cc1	60 to 120	25 to 100	< 60	< 10	< 10
CC(=O)N[C@@H](CCC(=O)O)C(=O)N[C@H]1CCSC[C@@H](C(=O)N[C@@H](Cc2ccc(OCCN)cc2)C(=O)N[C@@H](Cc2ccc3ccccc3c2)C(=O)N[C@@](C)(CCCCN)C(=O)N[C@@H](CCC(=O)O)C(=O)N[C@@H](CC(N)=O)C(=O)N[C@@H](CC(N)=O)C(N)=O)NC(=O)[C@H](CCC(N)=O)NC(=O)[C@H](Cc2c[nH]c3ccccc23)NC(=O)[C@H]([C@@H](C)O)NC(=O)[C@H](CCC(N)=O)NC1=O	> 360	< 10	120 to 180	< 10	< 10
COc1ccc(C[C@H](NC(=O)[C@@H](NC(=O)[C@H](CCC(N)=O)NC(=O)[C@H](Cc2c[nH]c3ccccc23)NC(=O)[C@@H](NC(=O)[C@H](CCC(N)=O)NC(=O)[C@@H](NC(C)=O)C(C)(C)S)[C@@H](C)O)C(C)(C)S)C(=O)N[C@@H](Cc2ccc3ccccc3c2)C(=O)N[C@@](C)(CCCCN)C(=O)N[C@@H](CCCCNC(C)=O)C(=O)N[C@@H](CC(N)=O)C(=O)NCC(N)=O)cc1	> 360	25 to 100	> 360	25 to 100	< 10
CC(=O)NCCCC[C@H](NC(=O)[C@](C)(CC(C)C)NC(=O)[C@H](Cc1ccc2ccccc2c1)NC(=O)[C@H](Cc1ccc(OCCN)cc1)NC(=O)[C@@H]1CSCC[C@H](NC(C)=O)C(=O)N[C@@H](CCC(N)=O)C(=O)N[C@@H]([C@@H](C)O)C(=O)N[C@@H](Cc2c[nH]c3ccccc23)C(=O)N[C@@H](CCC(N)=O)C(=O)N1)C(=O)N[C@@H](CC(N)=O)C(=O)N[C@@H](CC(N)=O)C(N)=O (Ac-[Abu(4-yl)]QTWQC[AEF][2Nal][αMeL]K(Ac)NN-NH2; thioether 1-6)	120 to 180	< 10	< 60	< 10	< 10
COc1ccc(C[C@H](NC(=O)[C@@H]2CSCC[C@H](NC(C)=O)C(=O)N[C@@H](CCC(N)=O)C(=O)N[C@@H]([C@@H](C)O)C(=O)N[C@@H](Cc3c[nH]c4ccccc34)C(=O)N[C@@H](CCC(N)=O)C(=O)N2)C(=O)N[C@@H](Cc2ccc3ccccc3c2)C(=O)N[C@@](C)(CCCN)C(=O)N[C@@H](CCC(=O)O)C(=O)N[C@@H](CC(N)=O)C(=O)NCC(N)=O)cc1	120 to 180	25 to 100	< 60	10 to 25	< 10
COc1ccc(C[C@H](NC(=O)[C@@H]2CSCC[C@H](NC(C)=O)C(=O)N[C@@H](CCC(N)=O)C(=O)N[C@@H]([C@@H](C)O)C(=O)N[C@@H](Cc3c[nH]c4ccccc34)C(=O)N[C@@H](CCC(N)=O)C(=O)N2)C(=O)N[C@@H](Cc2c[nH]c3ccccc23)C(=O)N[C@@](C)(CCCCN)C(=O)N[C@@H](CCC(=O)O)C(=O)N[C@@H](CC(N)=O)C(=O)NCC(N)=O)cc1	> 360	25 to 100	< 60	10 to 25	10 to 25
CC(=O)NCCOc1ccc(C[C@H](NC(=O)[C@@H]2CSCC[C@H](NC(C)=O)C(=O)N[C@@H](CCC(N)=O)C(=O)N[C@@H]([C@@H](C)O)C(=O)N[C@@H](Cc3c[nH]c4ccccc34)C(=O)N[C@@H](CCC(N)=O)C(=O)N2)C(=O)N[C@@H](Cc2ccc3ccccc3c2)C(=O)N[C@@](C)(CCCCN)C(=O)N[C@@H](CCC(=O)O)C(=O)N[C@@H](CC(N)=O)C(=O)NCC(N)=O)cc1	60 to 120	< 10	< 60	< 10	< 10
COc1ccc(C[C@H](NC(=O)[C@H]2NC(=O)[C@H](CCC(N)=O)NC(=O)[C@H](Cc3c[nH]c4ccccc34)NC(=O)[C@H]([C@@H](C)O)NC(=O)[C@H](CCC(N)=O)NC(=O)[C@@H](NC(C)=O)CCSC2(C)C)C(=O)N[C@@H](Cc2ccc3ccccc3c2)C(=O)N[C@@](C)(CCCCN)C(=O)N[C@@H](CCC(=O)O)C(=O)N[C@@H](CC(N)=O)C(=O)NCC(N)=O)cc1	180 to 360	100 to 1000	120 to 180	100 to 1000	25 to 100
CC(=O)N[C@@H](CC(C)C)C(=O)N[C@H]1CCSC[C@@H](C(=O)N[C@@H](Cc2ccc(OCCN)cc2)C(=O)N[C@@H](Cc2ccc3ccccc3c2)C(=O)N[C@@](C)(CCCCN)C(=O)N[C@@H](CCC(=O)O)C(=O)N[C@@H](CC(N)=O)C(=O)N[C@@H](CC(N)=O)C(N)=O)NC(=O)[C@H](CCC(N)=O)NC(=O)[C@H](Cc2c[nH]c3ccccc23)NC(=O)[C@H]([C@@H](C)O)NC(=O)[C@H](CCC(N)=O)NC1=O (Ac-L[Abu(4-yl)]QTWQC[AEF][2Nal][αMeK]ENN-NH2; thioether 2-7)	> 360	< 10	120 to 180	< 10	< 10
